Values quoted from earlier work as cited in patent US20090297541A1, “MATURATION OF DENDRITIC CELLS” (priority 2006, published 2009).

Tests used:
IFNGR1 chain = details: high affinity
immature DCs = details: MPLA at low doses (under 50 μg/ml)
monocyte-derived DCs = details: MPLA alone at concentrations up to 100 μg/ml

**Q.** For “IFN-gamma: cytokine, homodimer of two noncovalently bound polypeptide subunits; IFNγ receptor agonist”, which Kd (IFNGR1 chain) is on record?
**A.** ~1 nM

**Q.** For Monophosphoryl lipid A [MPLA], which “impact on DC maturation (monitored by IL-12 production)” value (immature DCs) is on record?
**A.** no impact on DC maturation

**Q.** What about the “production of IL-12p70 or IL-10” value (monocyte-derived DCs) of the same substance?
**A.** failed to induce any significant production of IL-12p70 or IL-10

**Q.** And the “migration and functional maturation of DCs in vivo” value (murine DCs)?
**A.** induces the migration and functional maturation of murine DCs in vivo
